# Assays:
# [1] = target: T1, truncated PTC (PTC lacking the C-terminal helix 13) (Enterococcus faecalis, UniProt Q837U7); assay: X-ray crystal structure, […] Å; type: binding; conditions: bisubstrate analogue in active site; pH 7.5
# T1 construct: gene ptcA
# [2] = target: T2, PTC (putrescine transcarbamylase) (Enterococcus faecalis, UniProt Q837U7); assay: X-ray crystal structure, […] Å; type: binding; conditions: bisubstrate analogue in active site; pH 5.5
# T2 construct: gene ptcA
# [3] = target: T3, OTC (ornithine transcarbamylase) (Enterococcus faecalis, UniProt Q839Q5); assay: citrulline production, approach to equilibrium; turnover only; type: biochemical; conditions: 10 mM ornithine, 10 mM carbamylphosphate, 0.1 M Tris-HCl pH 8.5, 37°C
# T3 construct: gene arcB
# T3 sequence (Q839Q5 1-339): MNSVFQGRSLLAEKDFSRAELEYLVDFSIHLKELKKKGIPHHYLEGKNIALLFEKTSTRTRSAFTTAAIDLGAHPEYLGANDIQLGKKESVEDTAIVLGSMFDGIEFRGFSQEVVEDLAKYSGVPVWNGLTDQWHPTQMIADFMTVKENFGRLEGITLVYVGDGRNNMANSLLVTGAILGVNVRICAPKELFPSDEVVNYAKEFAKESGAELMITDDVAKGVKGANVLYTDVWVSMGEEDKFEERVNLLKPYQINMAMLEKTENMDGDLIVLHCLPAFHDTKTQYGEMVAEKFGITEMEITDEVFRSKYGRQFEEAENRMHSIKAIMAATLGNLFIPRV
# [4] = target: T2, PTC (putrescine transcarbamylase); assay: inhibition of transcarbamylase activity, PAPU titration; type: biochemical; conditions: putrescine or ornithine as substrate (one common curve); bisubstrate analogue inhibitor
# [5] = target: T2, PTC (putrescine transcarbamylase); assay: X-ray crystal structure, […] Å; type: binding; conditions: bisubstrate analogue in active site; pH 5.5; remark: listed apart in the source
# T2 sequence (Q837U7 whole entry): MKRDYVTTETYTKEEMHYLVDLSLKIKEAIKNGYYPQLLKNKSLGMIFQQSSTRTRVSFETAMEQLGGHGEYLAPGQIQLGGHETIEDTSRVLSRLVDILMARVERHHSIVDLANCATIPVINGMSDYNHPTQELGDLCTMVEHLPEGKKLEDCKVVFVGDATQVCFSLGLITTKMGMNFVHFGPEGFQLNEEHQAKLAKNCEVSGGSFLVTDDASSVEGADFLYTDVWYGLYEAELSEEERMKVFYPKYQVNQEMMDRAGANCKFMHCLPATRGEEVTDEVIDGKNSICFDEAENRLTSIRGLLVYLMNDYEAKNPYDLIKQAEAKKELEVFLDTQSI
# T1 sequence (Q837U7 1-317): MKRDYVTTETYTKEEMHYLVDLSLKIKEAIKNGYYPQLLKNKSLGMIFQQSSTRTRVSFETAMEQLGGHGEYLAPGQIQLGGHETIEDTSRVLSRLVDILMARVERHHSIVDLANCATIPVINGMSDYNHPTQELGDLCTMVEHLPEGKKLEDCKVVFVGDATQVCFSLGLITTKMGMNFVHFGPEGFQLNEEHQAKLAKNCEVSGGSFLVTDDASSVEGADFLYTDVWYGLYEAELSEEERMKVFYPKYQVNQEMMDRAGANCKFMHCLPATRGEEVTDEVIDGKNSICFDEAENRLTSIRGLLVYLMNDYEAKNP
smiles,measurement,setting,value
"N[C@@H](CCCNC(=O)CP(=O)(O)O)C(=O)O [PALO, δ-N-(phosphonoacetyl)-L-ornithine]","X-ray crystal structure, 1.59 Å",[1],"4A8H, 4A8P and 4A8T for PTC-PAPU, PTC-PALO and truncated PTC-PALO, respectively"
same,"X-ray crystal structure, 2.0 Å",[2],"4A8H, 4A8P and 4A8T for PTC-PAPU, PTC-PALO and truncated PTC-PALO, respectively"
NCCC[C@H](N)C(=O)O [L-ornithine],"citrulline production, approach to equilibrium; turnover only",[3],carbamylation of ornithine (open symbols) using either OTC (squares) or PTC (triangles)
"NCCCCNC(=O)CP(=O)(O)O [PAPU, N-(phosphonoacetyl)-putrescine]",% activity,[4],PAPU inhibited similarly the activities of PTC with putrescine and with ornithine
same,"X-ray crystal structure, 2.5 Å",[5],"4A8H, 4A8P and 4A8T for PTC-PAPU, PTC-PALO and truncated PTC-PALO, respectively"

# From article PMC3282769 (PLoS ONE, 2012)
